Laboratory results: patent US5604206A, “Complexes containing S(+) phenyl alkane acids and amino sugars” (priority 1990, dated 1997)

Columns and labels:
[1] = Pharmacokinetics after a single oral dose in test persons (Table 1)
Excerpt: (§1) Pharmacokinetic parameters after taking a (single) oral
(§2) ibuprofen active substance) (4 test persons)

clinical = details: human, in vivo, po
Excerpt: as §1, §2

[2] = single oral dose, tablet, 150 mg ibuprofen active substance, 4 test persons, Mean ± SD

CC(C)Cc1ccc([C@H](C)C(=O)O)cc1 [S(+)-ibuprofen free acid, S(+)-ibuprofen, reference compound]
tlag [1, 2]: 0.50 ± 0.1 h
tmax (clinical): 2.1 ± 0.2 h

CC(C)Cc1ccc([C@H](C)C(=O)O)cc1.CNC[C@H](O)[C@@H](O)[C@H](O)[C@H](O)CO [Sugar complex, S(+)-ibuprofen-N-methyl-2-deoxy-glucitol]
tmax (rapid onset effect) ([1]; 150 mg active substance): 0.25 to 0.333 h
AUC [1, 2]: 55000 ± 10200 ng·h/mL
Cmax [1, 2]: 24500 ± 6700 ng/mL
tlag [1, 2]: 0.1 ± 0.02 h
tmax [1, 2]: 0.25 ± 0.11 h
